According to patent US7732604B2, “Triazolopyrazine derivatives” (Pfizer Inc., priority 2006, dated 2010):

Target: T1, HGFR (Homo sapiens, UniProt P08581)
T1 construct: purchased Upstate 14-526
Experiment: HGFR continuous-coupled spectrophotometric assay (tyrosine kinase activity on Met-2 substrate peptide)
Assay type: biochemical
Conditions: HGFR 50 nM, Met-2 peptide 0.5 mM, ATP 300 μM, 37° C., absorbance 340 nm; read-out: Ki

T1 sequence (P08581 974-1390 limits assumed): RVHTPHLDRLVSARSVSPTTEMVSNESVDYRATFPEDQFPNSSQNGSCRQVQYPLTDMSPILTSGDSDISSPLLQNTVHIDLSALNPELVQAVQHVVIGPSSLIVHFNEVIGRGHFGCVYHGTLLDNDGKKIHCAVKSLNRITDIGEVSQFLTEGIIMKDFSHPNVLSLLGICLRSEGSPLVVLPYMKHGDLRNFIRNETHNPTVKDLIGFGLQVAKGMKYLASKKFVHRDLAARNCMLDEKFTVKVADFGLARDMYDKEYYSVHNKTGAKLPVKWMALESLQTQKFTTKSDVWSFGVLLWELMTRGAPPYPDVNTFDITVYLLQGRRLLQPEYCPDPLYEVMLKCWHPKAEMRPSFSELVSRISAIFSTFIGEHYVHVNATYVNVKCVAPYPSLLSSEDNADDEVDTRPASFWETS

Row | SMILES | Ki [nM]
1 | NC(=O)CNc1cnc2nnn(Cc3ccc4ncccc4c3)c2n1 [Example 140, N~2~-[1-(quino-lin-6-yl-methyl)-1H-[1,2,3]tri-azolo[4,5-b]pyra-zin-6-yl]glycinamide] | 47
2 | c1cnc2ccc(Cn3nnc4ncc(OC5CCOCC5)nc43)cc2c1 [Example 142, 6-{[6-(tetra-hydro-2H-py-ran-4-yloxy)-1H-[1,2,3]tri-azolo[4,5-b]pyra-zin-1-yl]meth-yl}quinoline] | 49
3 | c1cnc2ccc(Cn3nnc4ncc(NC5CCOCC5)nc43)cc2c1 [Example 143, 1-(quinolin-6-yl-methyl)-N-(tetra-hydro-2H-py-ran-4-yl)-1H-[1,2,3]tri-azolo[4,5-b]py-razin-6-amine] | 9
4 | c1cnc2ccc(Cn3nnc4ncc(NC5CCOC5)nc43)cc2c1 (stereo not shown) [Example 146, 1-(quinolin-6-yl-methyl)-N-(tetra-hydrofuran-3-yl)-1H-[1,2,3]triazolo[4,5-b]pyra-zin-6-amine] | 7
5 | FC1CCN(C2CCN(c3cnc4nnn(Cc5ccc6ncccc6c5)c4n3)C2)CC1 (stereo not shown) [Example 147, 6-({6-[3-(4-fluoro-piperidin-1-yl)pyrro-lidin-1-yl]-1H-[1,2,3]tri-azolo[4,5-b]pyra-zin-1-yl}meth-yl)quinoline] | 34
6 | FC1(F)CCN(C2CCN(c3cnc4nnn(Cc5ccc6ncccc6c5)c4n3)C2)C1 (stereo not shown) [Example 149, 6-{[6-(3,3-di-fluoro-1,3′-bi-pyrrolidin-1′-yl)-1H-[1,2,3]tri-azolo[4,5-b]pyra-zin-1-yl]meth-yl}quinoline] | 15
7 | OC1(C(F)(F)F)CCN([C@@H]2CCN(c3cnc4nnn(Cc5ccc6ncccc6c5)c4n3)C2)CC1 [Example 151, 1-{(3R)-1-[1-(quino-lin-6-yl-methyl)-1H-[1,2,3]tri-azolo[4,5-b]pyra-zin-6-yl]pyrro-lidin-3-yl}-4-(tri-fluoromethyl)pipe-ridin-4-ol] | 20
8 | c1cnc2ccc(Cn3nnc4ncc(N5CC[C@@H](N6CCOCC6)C5)nc43)cc2c1 [Example 153, 6-({6-[(3R)-3-morpho-lin-4-ylpyrro-lidin-1-yl]-1H-[1,2,3]tri-azolo[4,5-b]pyra-zin-1-yl}meth-yl)quinoline] | 15
9 | O=C1CCN(c2cnc3nnn(Cc4ccc5ncccc5c4)c3n2)C1 [Example 154, 1-[1-(quinolin-6-yl-methyl)-1H-[1,2,3]tri-azolo[4,5-b]pyra-zin-6-yl]pyrro-lidin-3-one] | 39
10 | CCN(CC)c1cnc2nnn(Cc3ccc4ncccc4c3)c2n1 [Example 160, N,N-diethyl-1-(quino-lin-6-yl-methyl)-1H-[1,2,3]tri-azolo[4,5-b]pyra-zin-6-amine] | 13
11 | CCCCOc1cnc2nnn(Cc3ccc4ncccc4c3)c2n1 [Example 161, 6-[(6-butoxy-1H-[1,2,3]tri-azolo[4,5-b]pyra-zin-1-yl)meth-yl]quinoline] | 14
12 | NC(=O)c1cnc2nnn(Cc3ccc4ncccc4c3)c2n1 [Example 162, 1-(quinolin-6-yl-methyl)-1H-[1,2,3]tri-azolo[4,5-b]pyra-zine-6-carbox-amide] | 17
13 | c1cnc2ccc(Cn3nnc4ncc(N5CCCC5)nc43)cc2c1 [Example 164, 6-[(6-pyrrolidin-1-yl-1H-[1,2,3]tri-azolo[4,5-b]pyra-zin-1-yl)meth-yl]quinoline] | 14
14 | c1cnc2ccc(Cn3nnc4ncc(N5CCC5)nc43)cc2c1 [Example 165, 6-[(6-azetidin-1-yl-1H-[1,2,3]tri-azolo[4,5-b]pyra-zin-1-yl)meth-yl]quinoline] | 26
15 | CC(C)Nc1cnc2nnn(Cc3ccc4ncccc4c3)c2n1 [Example 166, N-isopropyl-1-(quino-lin-6-yl-methyl)-1H-[1,2,3]tri-azolo[4,5-b]pyra-zin-6-amine] | 4
16 | CC(C)(O)CNc1cnc2nnn(Cc3ccc4ncccc4c3)c2n1 [Example 167, 2-methyl-1-{[1-(quino-lin-6-ylmeth-yl)-1H-[1,2,3]tri-azolo[4,5-b]pyra-zin-6-yl]ami-no}propan-2-ol] | 13
17 | COCCOc1cnc2nnn(Cc3ccc4ncccc4c3)c2n1 [Example 169, 6-{[6-(2-methoxy-ethoxy)-1H-[1,2,3]tri-azolo[4,5-b]pyra-zin-1-yl]meth-yl}quinoline] | 26
18 | Fc1cc2ncccc2cc1Cn1nnc2ncc(N3CC[C@@H](N4CCOCC4)C3)nc21 [Example 171, 7-fluoro-6-({6-[(3R)-3-morpho-lin-4-yl-pyrrolidin-1-yl]-1H-[1,2,3]tri-azolo[4,5-b]pyra-zin-1-yl}meth-yl)quinoline] | 10
19 | CC(C)(O)CNc1cnc2nnn(Cc3cc4cccnc4cc3F)c2n1 [Example 172, 1-({1-[(7-fluoro-quinolin-6-yl)meth-yl]-1H-[1,2,3]tri-azolo[4,5-b]pyra-zin-6-yl}ami-no)-2-methyl-propan-2-ol] | 4
20 | C[C@H](O)CNc1cnc2nnn(Cc3cc4cccnc4cc3F)c2n1 [Example 173, (2)-1-({1-[(7-fluoro-quinolin-6-yl)meth-yl]-1H-[1,2,3]tri-azolo[4,5-b]pyra-zin-6-yl}ami-no)propan-2-ol] | 4
21 | CC(O)CNc1cnc2nnn(Cc3ccc4ncccc4c3)c2n1 (stereo not shown) [Example 174, 1-{[1-(quinolin-6-yl-methyl)-1H-[1,2,3]tri-azolo[4,5-b]pyra-zin-6-yl]ami-no}propan-2-ol] | 7
22 | CC(O)CNc1cnc2nnn(Cc3ccc4ncccc4c3)c2n1 (stereo not shown) [Example 175, 1-{[1-(quinolin-6-yl-methyl)-1H-[1,2,3]tri-azolo[4,5-b]pyra-zin-6-yl]ami-no}propan-2-ol] | 8
23 | NC(=O)C1CCN(c2cnc3nnn(Cc4ccc5ncccc5c4)c3n2)C1 (stereo not shown) [Example 176, 1-[1-(quinolin-6-yl-methyl)-1H-[1,2,3]tri-azolo[4,5-b]pyra-zin-6-yl]pyrro-lidine-3-carbox-amide] | 23
24 | NC(=O)C1CCN(c2cnc3nnn(Cc4ccc5ncccc5c4)c3n2)C1 (stereo not shown) [Example 177, 1-[1-(quinolin-6-yl-methyl)-1H-[1,2,3]tri-azolo[4,5-b]pyra-zin-6-yl]pyrro-lidine-3-carboxamide] | 29
25 | Cc1cnc2nnn(C(C)c3ccc4c(c3)OCCO4)c2n1 (stereo not shown) [Example 180, 1-[1-(3,4-Dihydro-benzo[1,4]dioxin-6-yl)-eth-yl]-6-meth-yl-1H-[1,2,3]tri-azolo[4,5-b]pyrazine] | 412
26 | CC(c1ccc2c(c1)OCCO2)n1nnc2ncc(N3CC[C@@H](N)C3)nc21 (stereo partly drawn) [Example 181, (R)-1-{3-[1-(2,3-Dihydro-benzo[1,4]dioxin-6-yl)-eth-yl]-3H-[1,2,3]triaz-olo[4,5-b]pyra-zin-5-yl}-pyrro-lidin-3-ylamine] | 177
27 | CC(N)c1cnc2nnn(Cc3ccc4ncccc4c3)c2n1 (stereo not shown) [Example 183, 1-(3-Quinolin-6-yl-methyl-3H-[1,2,3]tri-azolo[4,5-b]pyra-zin-5-yl)-ethylamine] | 837
28 | CC(O)c1cnc2nnn(Cc3ccc4ncccc4c3)c2n1 (stereo not shown) [Example 184, 1-(3-Quinolin-6-yl-methyl-3H-[1,2,3]tri-azolo[4,5-b]pyra-zin-5-yl)-ethanol] | 231

Continued by falling Ki, values first:

Row | Ki [nM] | SMILES
29 | 857 | CC(C)(O)c1cnc2nnn(Cc3ccc4ncccc4c3)c2n1 [Example 182, 2-(3-Quinolin-6-yl-methyl-3H-[1,2,3]tri-azolo[4,5-b]pyra-zin-5-yl)-pro-pan-2-ol]
30 | 564 | NC(=O)[C@H]1CCCN1c1cnc2nnn(Cc3ccc4ncccc4c3)c2n1 [Example 186, 1-[1-(quinolin-6-yl-methyl)-1H-[1,2,3]tri-azolo[4,5-b]pyra-zin-6-yl]-D-pro-linamide]
31 | 98 | C[C@H](c1ccc2c(c1)OCCO2)n1nnc2ncc(-c3cnn(C)c3)nc21 [Example 185, 1-[(R)-1-(2,3-Dihydro-benzo[1,4]dioxin-6-yl)-eth-yl]-6-(1-meth-yl-1H-pyra-zol-4-yl)-1H-[1,2,3]tri-azolo[4,5-b]pyrazine]
32 | 43 | CNCC1(O)CCN(c2cnc3nnn(Cc4ccc5ncccc5c4)c3n2)C1 (stereo not shown) [Example 155, 3-[(meth-ylamino)meth-yl]-1-[1-(quino-lin-6-yl-methyl)-1H-[1,2,3]tri-azolo[4,5-b]pyra-zin-6-yl]pyrro-lidin-3-ol]
33 | 31 | CN(C)CC1(O)CCN(c2cnc3nnn(Cc4ccc5ncccc5c4)c3n2)C1 (stereo not shown) [Example 158, 3-[(di-methylamino)meth-yl]-1-[1-(quino-lin-6-yl-methyl)-1H-[1,2,3]tri-azolo[4,5-b]pyra-zin-6-yl]pyrro-lidin-3-ol]
34 | 25 | N#Cc1cnc2nnn(Cc3ccc4ncccc4c3)c2n1 [Example 163, 1-(quinolin-6-yl-methyl)-1H-[1,2,3]tri-azolo[4,5-b]pyra-zine-6-carbonitrile]
35 | 21 | CC(C)(CO)Nc1cnc2nnn(Cc3ccc4ncccc4c3)c2n1 [Example 139, 2-methyl-2-{[1-(quino-lin-6-yl-methyl)-1H-[1,2,3]tri-azolo[4,5-b]pyra-zin-6-yl]ami-no}propan-1-ol]
36 | 13 | CN(C)c1cnc2nnn(Cc3ccc4ncccc4c3)c2n1 [Example 159, N,N-dimethyl-1-(quino-lin-6-yl-methyl)-1H-[1,2,3]tri-azolo[4,5-b]pyra-zin-6-amine]
37 | 6 | CC(C)(N)CNc1cnc2nnn(Cc3ccc4ncccc4c3)c2n1 [Example 141, 2-methyl-N~1~-[1-(quino-lin-6-yl-methyl)-1H-[1,2,3]tri-azolo[4,5-b]pyra-zin-6-yl]pro-pane-1,2-diamine]
38 | 5 | c1cnc2ccc(Cn3nnc4ncc(NC5CCOC5)nc43)cc2c1 (stereo not shown) [Example 145, 1-(quinolin-6-yl-methyl)-N-(tetra-hydrofuran-3-yl)-1H-[1,2,3]tri-azolo[4,5-b]pyra-zin-6-amine]
39 | 3 | FC(F)CNc1cnc2nnn(Cc3ccc4ncccc4c3)c2n1 [Example 144, N-(2,2-di-fluoroethyl)-1-(quino-lin-6-yl-methyl)-1H-[1,2,3]tri-azolo[4,5-b]pyra-zin-6-amine]
40 | 1 | Fc1cc2ncccc2cc1Cn1nnc2ncc(NC3CCOC3)nc21 (stereo not shown) [Example 152, 1-[(7-fluoro-quinolin-6-yl)meth-yl]-N-(tetra-hydrofuran-3-yl)-1H-[1,2,3]tri-azolo[4,5-b]pyra-zin-6-amine]
